Earlier results on 4 molecules are cited in patent US8598325B2, “Solid-phase microextraction coatings and methods for their preparation” (priority 2002, dated 2013).

Structures are written as SMILES. Where two headings read alike, the source gives them in different places.

By LogP is commonly meant the decadic logarithm of the partition coefficient of the neutral form, usually between octanol and water.

Test in data set [1]: not given
The source holds these as a separate data set.

The conditions of data set [2]: at 25° C.

For the molecule `CCCCC(O)(Cn1cncn1)c1ccc(Cl)cc1Cl` (centres unmarked) [Hexaconazole, hexaconazole], the LogP (pH 7) is reported as 3.9.

As for `CCCC(Cn1cncn1)c1ccc(Cl)cc1Cl` (centres unmarked) [Penconazole, penconazole], the LogP (pH 7) was 3.72. In addition, in data set [1], the Sol. in water is on record as 73 mg/L. Also, the “Vapour Pressure” value in data set [2] is listed as 0.366 mPa.

Consider `CC(C)(C)C(=O)C(Oc1ccc(Cl)cc1)n1cncn1` (centres unmarked) [Triadimefon, triadimefon], for which the LogP (at pH 7, 20° C.) is given as 3.18. For the same molecule, in data set [1], the Sol. in water was 70 mg/L. Further, the “Vapour Pressure” value in data set [2] is 0.02 mPa.

For the molecule `CC(C)(C)C(O)C(Oc1ccc(Cl)cc1)n1cncn1` (centres unmarked) [Triadimenol, triadimenol], for the setting “pH 7”, the LogP is on record as 3.18.
